Measurements as given in ChEMBL document CHEMBL5726136, “Heterocyclic compounds and methods for their use” (2017).

target: T1, Type-2 angiotensin II receptor (Homo sapiens, UniProt P50052); assay: Receptor Binding Assay: 120 μL membrane (5 mg protein/well) was incubated with 15 μL of [125I]-CGP42112A and 15 μL of compound at RT for 1.5 hrs.The binding reaction was stopped by rapid filtration through Unifilter GF/C plates (presoaked in 0.3% (v:v) BSA).Plate was washed three times with ice cold wash buffer.The filtration plates were dried at 37° C. overnight.50 μL of scintillation cocktail was added to each well.Radioactivity was determined using MicroBetaTriluxmicroplate scintillation counter.
T1 sequence (P50052 whole entry): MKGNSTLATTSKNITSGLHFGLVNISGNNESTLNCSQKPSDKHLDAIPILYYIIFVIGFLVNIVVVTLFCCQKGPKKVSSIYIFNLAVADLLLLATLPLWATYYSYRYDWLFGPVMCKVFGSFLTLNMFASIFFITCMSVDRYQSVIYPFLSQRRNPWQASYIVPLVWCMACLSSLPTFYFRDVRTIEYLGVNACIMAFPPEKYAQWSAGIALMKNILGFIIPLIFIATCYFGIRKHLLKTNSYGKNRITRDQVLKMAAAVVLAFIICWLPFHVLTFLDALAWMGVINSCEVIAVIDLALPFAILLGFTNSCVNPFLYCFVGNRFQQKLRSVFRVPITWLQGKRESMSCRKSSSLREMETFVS

Row | SMILES | IC50
1 | O=C(O)[C@@H]1C[C@H](OCc2ccccc2)CCN1C(=O)C(c1ccccc1)c1ccccc1 | 76.7 nM
2 | CC(C)C#CCN(C)[C@H]1CCN(C(=O)C(c2ccccc2)c2ccccc2)[C@H](C(=O)O)C1 | 354 nM
3 | CC(C)C#CCN(C)[C@@H]1CCN(C(=O)C(c2ccccc2)c2ccccc2)[C@H](C(=O)O)C1 | 153 nM
4 | O=C(O)[C@@H]1C[C@H](OCC#Cc2ccc(F)cc2)CCN1C(=O)C(c1ccccc1)c1ccccc1 | 228 nM
